These results are taken from US9682985B2, “(Indazol-4-yl) hexahydropyrrolopyrrolones and methods of use” (AbbVie Inc., priority 2015, dated 2017).

The structures appear in SMILES notation.

Broadly, the IC50 is the concentration that inhibits the measured activity by half.

Common to all, as to type: cell-based
One assay addresses T1, recombinant human Nav1.7 (Homo sapiens, UniProt Q15858).
T1 construct: expressed in transfected cells; host or cells: HEK293
Briefly: FRET-based membrane potential assay, Nav1.7. The following applies: HEK293 cells expressing recombinant human Nav1.7; veratridine + scorpion venom depolarization.

In a further assay the target is T2, recombinant human Nav1.8 (Homo sapiens, UniProt Q9Y5Y9).
T2 construct: host or cells: HEK293
As to the kind of experiment: FRET-based membrane potential assay, Nav1.8. The following applies: HEK293 cells expressing recombinant human Nav1.8; veratridine + scorpion venom depolarization.

For the next assay, the target named is T3, hERG channel (Kv11.1) (Homo sapiens, UniProt Q12809).
T3 construct: W. January (Wisconsin Alumni Research Foundation); host or cells: HEK-293
Briefly: hERG QPatch screening protocol (hERG current block). The following applies: HEK-293 cells stably transfected with hERG; tail current; room temperature. The protocol: hERG QPatch Screening Protocol
Solutions and Compound Plates:
The bath solution contained (in mM): 140 NaCl, 5 KCl, 1 MgCl2, 2 CaCl2, 5 glucose, 20 HEPES, pH=7.4. The internal solution contained (in mM): 125 K-aspartate, 20 KCl, 10 EGTA, 5 MgATP, 1 MgCl2, 5 HEPES, pH=7.3.
Compound plates were prepared with an acoustic liquid handler (Echo® 550, Labcyte), using 384-well source plates and 96-well destination plates. Compounds were delivered to the destination plates as 300 nL spots in half-log increments (1, 3, 10 and 30 mM), dissolved in dimethyl sulfoxide. Plates were solvated with bath solution (300 μL) to final concentrations (1, 3, 10 and 30 μM; 0.1% dimethyl sulfoxide) and added to the QPatch workstation.
Cells and Cell Preparation:
Human embryonic kidney (HEK-293) cells, stably transfected with the hERG channel, were obtained from Dr. C. W. January (Wisconsin Alumni Research Foundation). Cells were initially maintained at 37° C. (5% CO2 atmosphere) in MEM supplemented media. Cells were cryo-preserved in 10% dimethyl sulfoxide, 90% fetal bovine serum at 10 M cells/mL. For electrophysiological studies, cells were thawed, resuspended in media at 1.0-1.5 M cells/mL and placed on the QPatch workstation.
QPatch Electrophysiology Workstation and Experimental Protocol:
Currents were recorded using QPatch HT (Sophion), an automated planar patch-clamp system. The QPatch uses forty-eight amplifiers and a 48-chamber QPlate positioned directly on top of the headstage. To obtain high resistant seals, cells are added to each chamber and allowed to settle for 10 seconds. Negative pressure is then applied to promote cell delivery to the patch chip openings on the chamber bottom. After formation of GΩ seals, negative pressure ramps are applied to obtain intracellular access. Access resistance was initially optimized by additional pressure ramps to assure the intracellular access was adequate for voltage clamp experiments (targeted access resistance <10 MΩ). Whole-cell compensation and series resistance compensation were used at 60% (both predicted and corrected). Experiments using QPatch were conducted at room temperature.
A single application of each concentration was applied to cells. During a five-minute wash-in period, a four-second depolarizing pulse to +20 mV, followed by a five-second repolarizing pulse to −50 mV was applied once every 15 seconds from a holding potential of −80 mV. Cells were exposed to four ascending concentrations of drug in half-log intervals.
Evaluation of hERG Current Block:
hERG tail current was measured as the difference in amplitude between a […] and the end of a five-second test pulse to −50 mV, preceded by a four-second pulse to +20 mV. The hERG IC50 values for compounds were determined from tail current analysis. The IC50 was calculated with a logistic fitting routine using the following equation: y=[(A1−A2)/(1+(x/IC50))^p]A2, where A1=initial×value, A2=final×value and p=power.
On the technique in general: The hERG channel carries a current that helps repolarise heart muscle cells.

T1 sequence (Q15858 whole entry): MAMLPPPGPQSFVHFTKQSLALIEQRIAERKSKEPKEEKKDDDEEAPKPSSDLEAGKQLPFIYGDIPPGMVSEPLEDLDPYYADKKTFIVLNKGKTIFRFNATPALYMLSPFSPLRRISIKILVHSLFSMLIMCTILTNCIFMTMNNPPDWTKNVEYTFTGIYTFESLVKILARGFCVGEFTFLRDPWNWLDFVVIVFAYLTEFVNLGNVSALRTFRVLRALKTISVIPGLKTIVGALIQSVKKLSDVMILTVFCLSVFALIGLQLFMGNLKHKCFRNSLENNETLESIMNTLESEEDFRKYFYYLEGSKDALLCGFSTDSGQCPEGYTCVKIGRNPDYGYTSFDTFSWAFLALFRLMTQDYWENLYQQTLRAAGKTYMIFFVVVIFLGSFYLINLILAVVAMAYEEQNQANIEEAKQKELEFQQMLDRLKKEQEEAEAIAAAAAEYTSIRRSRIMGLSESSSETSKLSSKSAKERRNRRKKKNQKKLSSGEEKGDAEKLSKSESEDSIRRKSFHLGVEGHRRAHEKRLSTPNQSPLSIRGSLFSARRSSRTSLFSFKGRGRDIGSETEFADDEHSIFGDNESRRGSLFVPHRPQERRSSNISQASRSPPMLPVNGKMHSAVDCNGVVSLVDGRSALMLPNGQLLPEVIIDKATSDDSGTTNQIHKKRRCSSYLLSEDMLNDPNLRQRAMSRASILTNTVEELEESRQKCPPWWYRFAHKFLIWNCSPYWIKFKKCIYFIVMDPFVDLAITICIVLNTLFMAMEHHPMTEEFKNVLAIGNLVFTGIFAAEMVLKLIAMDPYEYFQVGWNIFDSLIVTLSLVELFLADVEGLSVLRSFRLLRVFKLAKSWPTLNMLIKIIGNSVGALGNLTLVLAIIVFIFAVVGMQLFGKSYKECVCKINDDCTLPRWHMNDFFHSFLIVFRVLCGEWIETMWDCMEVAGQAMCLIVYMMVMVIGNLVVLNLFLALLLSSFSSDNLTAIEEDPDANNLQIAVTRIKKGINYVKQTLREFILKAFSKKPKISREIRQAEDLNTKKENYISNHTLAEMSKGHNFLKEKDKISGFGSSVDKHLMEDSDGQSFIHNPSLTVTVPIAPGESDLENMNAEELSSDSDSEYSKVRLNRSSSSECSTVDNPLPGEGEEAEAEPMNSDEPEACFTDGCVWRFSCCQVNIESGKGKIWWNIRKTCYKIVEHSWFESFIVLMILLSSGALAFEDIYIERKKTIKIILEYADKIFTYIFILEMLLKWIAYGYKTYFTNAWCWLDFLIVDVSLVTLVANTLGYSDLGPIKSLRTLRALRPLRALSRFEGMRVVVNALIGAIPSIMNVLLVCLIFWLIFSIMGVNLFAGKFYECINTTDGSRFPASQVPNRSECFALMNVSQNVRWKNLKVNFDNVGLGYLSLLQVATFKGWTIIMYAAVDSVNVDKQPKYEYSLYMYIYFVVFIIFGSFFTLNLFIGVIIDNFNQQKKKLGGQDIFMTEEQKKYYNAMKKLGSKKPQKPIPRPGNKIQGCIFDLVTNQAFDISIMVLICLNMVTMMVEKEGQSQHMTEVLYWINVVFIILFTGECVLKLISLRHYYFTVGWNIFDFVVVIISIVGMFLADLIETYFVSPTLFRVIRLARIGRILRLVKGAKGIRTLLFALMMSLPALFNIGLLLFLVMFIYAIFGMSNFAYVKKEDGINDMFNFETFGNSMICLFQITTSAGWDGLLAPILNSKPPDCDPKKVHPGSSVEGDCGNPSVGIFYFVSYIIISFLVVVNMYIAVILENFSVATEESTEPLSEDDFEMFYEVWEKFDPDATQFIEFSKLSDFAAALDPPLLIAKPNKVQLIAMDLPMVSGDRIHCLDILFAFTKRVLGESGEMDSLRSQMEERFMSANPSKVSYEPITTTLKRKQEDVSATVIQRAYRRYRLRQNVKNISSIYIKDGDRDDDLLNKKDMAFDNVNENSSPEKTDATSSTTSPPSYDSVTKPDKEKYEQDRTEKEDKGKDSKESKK
T3 sequence (Q12809 whole entry): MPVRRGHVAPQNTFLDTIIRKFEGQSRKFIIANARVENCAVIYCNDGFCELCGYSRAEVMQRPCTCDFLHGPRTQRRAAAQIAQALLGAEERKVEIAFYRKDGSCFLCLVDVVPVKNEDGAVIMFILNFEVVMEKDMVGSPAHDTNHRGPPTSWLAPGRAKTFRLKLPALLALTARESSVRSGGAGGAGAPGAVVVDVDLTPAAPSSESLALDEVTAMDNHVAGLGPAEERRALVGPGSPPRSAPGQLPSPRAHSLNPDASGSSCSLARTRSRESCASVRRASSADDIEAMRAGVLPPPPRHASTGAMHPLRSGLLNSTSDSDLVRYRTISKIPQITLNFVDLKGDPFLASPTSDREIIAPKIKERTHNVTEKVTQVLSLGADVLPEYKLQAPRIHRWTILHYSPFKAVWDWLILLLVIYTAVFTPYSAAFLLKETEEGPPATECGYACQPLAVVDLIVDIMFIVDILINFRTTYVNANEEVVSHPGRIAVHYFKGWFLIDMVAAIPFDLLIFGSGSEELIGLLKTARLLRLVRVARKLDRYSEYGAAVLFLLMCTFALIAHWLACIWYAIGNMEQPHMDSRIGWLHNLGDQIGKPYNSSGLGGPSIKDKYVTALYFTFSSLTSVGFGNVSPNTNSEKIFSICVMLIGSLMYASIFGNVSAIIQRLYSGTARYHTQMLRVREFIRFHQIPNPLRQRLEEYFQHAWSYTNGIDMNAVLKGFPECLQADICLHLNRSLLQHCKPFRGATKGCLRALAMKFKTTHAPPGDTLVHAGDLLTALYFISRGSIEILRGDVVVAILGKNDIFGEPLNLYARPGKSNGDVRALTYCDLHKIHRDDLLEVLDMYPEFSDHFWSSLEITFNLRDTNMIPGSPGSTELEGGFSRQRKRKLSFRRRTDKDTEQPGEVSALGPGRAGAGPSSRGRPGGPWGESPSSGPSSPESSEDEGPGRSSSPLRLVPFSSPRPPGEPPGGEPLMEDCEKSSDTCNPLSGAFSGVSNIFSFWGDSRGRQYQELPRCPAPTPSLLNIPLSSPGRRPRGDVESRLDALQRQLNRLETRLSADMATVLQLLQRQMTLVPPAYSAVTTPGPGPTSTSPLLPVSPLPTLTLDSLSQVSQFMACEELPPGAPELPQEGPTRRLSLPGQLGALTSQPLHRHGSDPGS
T2 sequence (Q9Y5Y9 whole entry): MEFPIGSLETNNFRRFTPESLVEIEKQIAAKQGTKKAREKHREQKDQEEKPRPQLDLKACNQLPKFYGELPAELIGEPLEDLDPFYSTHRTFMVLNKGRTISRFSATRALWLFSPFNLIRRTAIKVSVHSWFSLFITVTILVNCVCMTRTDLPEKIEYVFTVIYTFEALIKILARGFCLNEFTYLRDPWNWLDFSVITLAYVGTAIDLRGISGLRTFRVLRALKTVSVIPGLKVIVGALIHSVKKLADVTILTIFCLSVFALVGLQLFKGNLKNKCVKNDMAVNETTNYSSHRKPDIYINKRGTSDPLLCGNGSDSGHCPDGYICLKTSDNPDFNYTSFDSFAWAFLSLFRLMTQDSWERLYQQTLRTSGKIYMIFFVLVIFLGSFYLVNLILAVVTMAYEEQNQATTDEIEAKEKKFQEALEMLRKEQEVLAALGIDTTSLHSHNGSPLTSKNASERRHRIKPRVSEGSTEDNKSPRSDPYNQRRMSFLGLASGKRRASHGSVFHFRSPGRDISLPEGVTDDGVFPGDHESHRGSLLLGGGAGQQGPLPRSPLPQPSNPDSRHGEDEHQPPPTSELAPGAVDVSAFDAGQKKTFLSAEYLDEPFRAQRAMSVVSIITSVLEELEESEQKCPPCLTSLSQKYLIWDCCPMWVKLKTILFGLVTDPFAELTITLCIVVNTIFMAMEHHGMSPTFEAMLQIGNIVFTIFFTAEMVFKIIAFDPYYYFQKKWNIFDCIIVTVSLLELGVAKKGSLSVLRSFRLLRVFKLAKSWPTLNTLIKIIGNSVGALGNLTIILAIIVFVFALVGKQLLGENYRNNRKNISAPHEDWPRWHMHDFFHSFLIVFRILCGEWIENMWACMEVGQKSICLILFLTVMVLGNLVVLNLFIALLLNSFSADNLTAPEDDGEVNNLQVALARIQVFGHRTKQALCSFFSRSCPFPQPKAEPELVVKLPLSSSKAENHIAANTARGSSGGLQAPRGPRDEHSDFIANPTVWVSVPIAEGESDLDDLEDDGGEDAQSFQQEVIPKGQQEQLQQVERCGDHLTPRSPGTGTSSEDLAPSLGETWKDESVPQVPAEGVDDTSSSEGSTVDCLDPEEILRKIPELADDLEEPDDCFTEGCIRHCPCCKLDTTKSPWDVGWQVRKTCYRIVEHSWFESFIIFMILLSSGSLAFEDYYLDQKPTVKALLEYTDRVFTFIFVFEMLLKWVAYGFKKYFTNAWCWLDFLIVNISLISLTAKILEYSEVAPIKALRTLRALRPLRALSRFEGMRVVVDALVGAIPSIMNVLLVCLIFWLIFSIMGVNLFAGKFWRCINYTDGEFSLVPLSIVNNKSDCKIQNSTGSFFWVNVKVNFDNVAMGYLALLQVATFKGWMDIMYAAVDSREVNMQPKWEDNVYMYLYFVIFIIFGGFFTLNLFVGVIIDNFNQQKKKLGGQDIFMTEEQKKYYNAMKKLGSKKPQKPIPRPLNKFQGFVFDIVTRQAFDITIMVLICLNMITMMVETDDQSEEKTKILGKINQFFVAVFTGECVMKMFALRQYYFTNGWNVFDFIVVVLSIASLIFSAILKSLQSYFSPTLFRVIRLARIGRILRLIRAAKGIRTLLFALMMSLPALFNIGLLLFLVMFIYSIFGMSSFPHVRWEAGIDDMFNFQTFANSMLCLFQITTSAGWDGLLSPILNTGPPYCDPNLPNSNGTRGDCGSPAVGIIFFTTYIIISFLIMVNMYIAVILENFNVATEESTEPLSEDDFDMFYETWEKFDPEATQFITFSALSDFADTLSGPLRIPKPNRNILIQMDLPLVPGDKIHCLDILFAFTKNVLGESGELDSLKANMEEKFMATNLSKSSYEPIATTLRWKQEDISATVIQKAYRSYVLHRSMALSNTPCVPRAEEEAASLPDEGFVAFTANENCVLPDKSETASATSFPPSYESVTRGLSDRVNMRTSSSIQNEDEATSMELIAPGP

Regarding `O=C1[C@H]2[C@H](CCN2C(=O)[C@@H]2CCOC2)CN1c1cccc2c1cnn2-c1ccccc1F` (mixture of isomers) [Example 3, (3aR*,6aR*)-5-[1-(2-fluorophenyl)-1H-indazol-4-yl]-1-[(3R)-tetrahydrofuran-3-ylcarbonyl]hexahydropyrrolo[3,4-b]pyrrol-6(1H)-one], the half-inhibitory concentration (IC50) was 1.93 µM at recombinant human Nav1.7, 5.4 µM at recombinant human Nav1.8 and greater than 30 µM at hERG channel (Kv11.1).
Take `C[C@@H](O)CC(=O)N1CC[C@@H]2CN(c3cccc4c3cnn4-c3ccccc3F)C(=O)[C@@H]21` (mixture of isomers) [Example 7, (3aR*,6aR*)-5-[1-(2-fluorophenyl)-1H-indazol-4-yl]-1-[(3R)-3-hydroxybutanoyl]hexahydropyrrolo[3,4-b]pyrrol-6(1H)-one]: the IC50 is 3.19 µM at recombinant human Nav1.7, 3.08 µM on recombinant human Nav1.8 and greater than 30 µM against hERG channel (Kv11.1).
In the case of `CC(C)(O)C(=O)N1CC[C@@H]2CN(c3cccc4c3cnn4-c3ccccc3F)C(=O)[C@@H]21` (relative stereo) [Example 4, rel-(3aR,6aR)-5-[1-(2-fluorophenyl)-1H-indazol-4-yl]-1-(2-hydroxy-2-methylpropanoyl)hexahydropyrrolo[3,4-b]pyrrol-6(1H)-one], the results for the half-inhibitory concentration (IC50) at recombinant human Nav1.7 and at hERG channel (Kv11.1) were 1.95 µM and greater than 30 µM, respectively.
As for `O=C1[C@H]2[C@H](CCN2C(=O)C2(O)CC2)CN1c1cccc2c1cnn2-c1ccccc1F` (relative stereo) [Example 5, rel-(3aR,6aR)-5-[1-(2-fluorophenyl)-1H-indazol-4-yl]-1-[(1-hydroxycyclopropyl)carbonyl]hexahydropyrrolo[3,4-b]pyrrol-6(1H)-one], the values for the 50% inhibitory concentration (IC50) on recombinant human Nav1.7 and at hERG channel (Kv11.1) were 1.68 µM and greater than 30 µM, respectively.
With `CC(=O)N1CC[C@@H]2CN(c3cccc4c3cnn4-c3ccccc3F)C(=O)[C@@H]21` (relative stereo) [Example 6, rel-(3aR,6aR)-1-acetyl-5-[1-(2-fluorophenyl)-1H-indazol-4-yl]hexahydropyrrolo[3,4-b]pyrrol-6(1H)-one], the values for the 50% inhibitory concentration (IC50) at recombinant human Nav1.7 and at recombinant human Nav1.8 were 13.1 µM and 14.7 µM, respectively.
In the case of `O=C1[C@H]2CN(C(=O)n3ccnc3)C[C@H]2CN1c1cccc2c1cnn2-c1ccccc1F` (relative stereo) [Example 12, rel-(3aR,6aR)-2-[1-(2-fluorophenyl)-1H-indazol-4-yl]-5-(1H-imidazol-1-ylcarbonyl)hexahydropyrrolo[3,4-c]pyrrol-1(2H)-one], the concentration for half-maximal inhibition (IC50) amounted to 3.06 µM at recombinant human Nav1.7 and 13.7 µM at hERG channel (Kv11.1).
In the case of `CC(C)CS(=O)(=O)N1C[C@@H]2CN(c3cccc4c3cnn4-c3ccccc3F)C(=O)[C@@H]2C1` [Example 21, (3aS,6aS)-2-[1-(2-fluorophenyl)-1H-indazol-4-yl]-5-(isobutylsulfonyl)hexahydropyrrolo[3,4-c]pyrrol-1(2H)-one], the IC50 was determined as 0.903 µM at recombinant human Nav1.7 and 14.2 µM against hERG channel (Kv11.1).
`CCS(=O)(=O)N1C[C@@H]2CN(c3cccc4c3cnn4-c3ccccc3F)C(=O)[C@@H]2C1` [Example 23, (3aS,6aS)-5-(ethylsulfonyl)-2-[1-(2-fluorophenyl)-1H-indazol-4-yl]hexahydropyrrolo[3,4-c]pyrrol-1(2H)-one]: the 50% inhibitory concentration (IC50) is 2.93 µM on recombinant human Nav1.7 and greater than 30 µM on hERG channel (Kv11.1).
`O=C(Cc1coc2ccccc12)N1CC2CN(c3cccc4c3cnn4-c3ccccc3F)C(=O)C2C1` [Example 25, (3aR,6aS)-5-(1-benzofuran-3-ylacetyl)-2-[1-(2-fluorophenyl)-1H-indazol-4-yl]hexahydropyrrolo[3,4-c]pyrrol-1(2H)-one]: the figures for the IC50 on recombinant human Nav1.7 and at hERG channel (Kv11.1) were 1.29 µM and 4.31 µM, respectively.
As for `O=C1[C@@H]2CN(S(=O)(=O)CCC(F)(F)F)C[C@@H]2CN1c1cccc2c1cnn2-c1ccccc1F` [Example 26, (3aS,6aS)-2-[1-(2-fluorophenyl)-1H-indazol-4-yl]-5-[(3,3,3-trifluoropropyl)sulfonyl]hexahydropyrrolo[3,4-c]pyrrol-1(2H)-one], the half-inhibitory concentration (IC50) is 2.94 µM on recombinant human Nav1.7 and greater than 30 µM against hERG channel (Kv11.1).
The like results for `O=C1[C@@H]2CN(S(=O)(=O)c3ccccc3)C[C@@H]2CN1c1cccc2c1cnn2-c1ccccc1F` [Example 29, (3aS,6aS)-2-[1-(2-fluorophenyl)-1H-indazol-4-yl]-5-(phenylsulfonyl)hexahydropyrrolo[3,4-c]pyrrol-1(2H)-one] were, in that order, 2.88 µM and 26.5 µM.
On to `O=C(c1coc(CN2CCCC2)n1)N1C[C@@H]2CN(c3cccc4c3cnn4-c3ccccc3F)C(=O)[C@@H]2C1` [Example 31, (3aR,6aS)-2-[1-(2-fluorophenyl)-1H-indazol-4-yl]-5-{[2-(pyrrolidin-1-ylmethyl)-1,3-oxazol-4-yl]carbonyl}hexahydropyrrolo[3,4-c]pyrrol-1(2H)-one], for which the values for the IC50 at recombinant human Nav1.7 and on hERG channel (Kv11.1) were 0.463 µM and 13.5 µM, respectively.
As for `O=C(C1CC(Cl)C1)N1C[C@H]2CN(c3cccc4c3cnn4-c3ccccc3F)C(=O)[C@H]2C1` (stereo partly drawn) [Example 43, (3aS,6aR)-5-[(3-chlorocyclobutyl)carbonyl]-2-[1-(2-fluorophenyl)-1H-indazol-4-yl]hexahydropyrrolo[3,4-c]pyrrol-1(2H)-one], the half-inhibitory concentration (IC50) was 3.03 µM at recombinant human Nav1.7 and greater than 30 µM against hERG channel (Kv11.1).
`NC(=O)CC(=O)N1C[C@H]2CN(c3cccc4c3cnn4-c3ccccc3F)C(=O)[C@H]2C1` [Example 44, 3-[(3aR,6aS)-5-[1-(2-fluorophenyl)-1H-indazol-4-yl]-4-oxohexahydropyrrolo[3,4-c]pyrrol-2(1H)-yl]-3-oxopropanamide]: the 50% inhibitory concentration (IC50) on recombinant human Nav1.7 and at recombinant human Nav1.8 was greater than 20 µM in each case.
On to `O=C(CCO)N1C[C@H]2CN(c3cccc4c3cnn4-c3ccccc3F)C(=O)[C@H]2C1` [Example 45, (3aS,6aR)-2-[1-(2-fluorophenyl)-1H-indazol-4-yl]-5-(3-hydroxypropanoyl)hexahydropyrrolo[3,4-c]pyrrol-1(2H)-one], for which the IC50 on recombinant human Nav1.7 and on recombinant human Nav1.8 was greater than 20 µM each time.
Take `CC(=O)N1C[C@H]2CN(c3cccc4c3cnn4-c3ccccc3F)C(=O)[C@H]2C1` [Example 46, (3aS,6aR)-5-acetyl-2-[1-(2-fluorophenyl)-1H-indazol-4-yl]hexahydropyrrolo[3,4-c]pyrrol-1(2H)-one]: the IC50 is 3.56 µM on recombinant human Nav1.7 and greater than 30 µM at hERG channel (Kv11.1).
As for `CC(C)(O)C(=O)N1CC[C@H]2CN(c3cccc4c3cnn4-c3ccccc3F)C(=O)[C@H]21` [Example 49, (3aS,6aS)-5-[1-(2-fluorophenyl)-1H-indazol-4-yl]-1-(2-hydroxy-2-methylpropanoyl)hexahydropyrrolo[3,4-b]pyrrol-6(1H)-one], the values for the IC50 at recombinant human Nav1.7 and at recombinant human Nav1.8 were 0.397 µM and 4.03 µM, respectively.
